Results on 3 compounds are retold here after publication PMC13266999, “Designing Antibiotics with Inherent Resistance to Efflux as a Strategy to Revive Discovery against Multidrug-Resistant Pathogens” (Journal of Medicinal Chemistry, 2026).

In data set [1] the test system is S. oralis, S. mutans, S. salivarius, S. sanguinis, and S. pyogenes. As to the kind of experiment: MIC, extended Gram-positive panel (grouped species). Type of data set: cell-based, Streptococcus spp. As for the experimental part: All bacteria were maintained on tryptic soy agar (TSA), except Streptococcus spp., which were maintained on Columbia agar plates containing 5% horse blood. All bacterial assays were carried out in tryptic soy broth (TSB), except for Streptococcus spp. which were grown in cation-adjusted Mueller Hinton broth containing 2.5% lysed horse blood. Bacteria were grown to stationary phase in liquid culture overnight, with shaking at 200 rpm, before being back diluted to the relevant starting concentration for each assay below. MICs were measured by the microbroth dilution method. […] Absorbance at OD600 was read on a CLARIOstar spectrophotometer (BMG Labtech) and the MIC was defined as the minimum concentration of compound where no visible growth was detected. The compounds were prepared as a DMSO stock and equivalent concentrations of DMSO had no effect on bacterial growth. MICs were also performed in the presence of the outer membrane permeator, polymyxin b nonapeptide (PMBN) following the same MIC method but with the following variation. The 2-fold dilution series of compound was prepared as above, then 50 μL of PMBN at a final concentration of 30 μg/mL was added to relevant wells, while 50 μL/well of blank media was added to the remaining wells. Bacteria were then added at 50 μL/well for a starting concentration as above. […] The MICs were read and defined as above. […]

For data set [2], the system named is E. faecium. Description: MIC (microbroth dilution). The settings on record: for MIC: Enterococcus faecium. Type of data set: cell-based, Enterococcus faecium. As for the experimental part: (§1) All bacteria were maintained on tryptic soy agar (TSA), except Streptococcus spp., which were maintained on Columbia agar plates containing 5% horse blood. All bacterial assays were carried out in tryptic soy broth (TSB), except for Streptococcus spp. which were grown in cation-adjusted Mueller Hinton broth containing 2.5% lysed horse blood. Bacteria were grown to stationary phase in liquid culture overnight, with shaking at 200 rpm, before being back diluted to the relevant starting concentration for each assay below. MICs were measured by the microbroth dilution method. […] Absorbance at OD600 was read on a CLARIOstar spectrophotometer (BMG Labtech) and the MIC was defined as the minimum concentration of compound where no visible growth was detected. The compounds were prepared as a DMSO stock and equivalent concentrations of DMSO had no effect on bacterial growth. MICs were also performed in the presence of the outer membrane permeator, polymyxin b nonapeptide (PMBN) following the same MIC method but with the following variation. The 2-fold dilution series of compound was prepared as above, then 50 μL of PMBN at a final concentration of 30 μg/mL was added to relevant wells, while 50 μL/well of blank media was added to the remaining wells. Bacteria were then added at 50 μL/well for a starting concentration as above. Thirty μg/mL of PMBN had no effect on bacterial growth. The MICs were read and defined as above. All animal procedures were performed by the contract research organization Pharmacology Discovery Services Taiwan in accordance with the Guide for the Care and Use of Laboratory Animals. The procedures were approved by the Institutional Ethics Committee of Pharmacology Discovery Services Taiwan, Ltd. (approval no. AB127662), in compliance with animal welfare legislation in Taiwan.
On the technique in general: Dilution methods test growth across graded concentrations, often in twofold steps.

Data set [3] has as its system Streptococcus mutans. As to the kind of experiment: MIC (microbroth dilution). Type of data set: cell-based. To be noted: ATCC25175, ATCC 25175. The gist of the method: (§2)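 Microbroth dilution in tryptic soy broth; Streptococcus spp. in cation-adjusted Mueller Hinton broth with 2.5% lysed horse blood, inocula from overnight stationary-phase cultures. MIC is lowest concentration without visible growth, OD600 read. Parallel MICs run with 30 μg/mL polymyxin B nonapeptide (final) as outer-membrane permeabilizer.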

In data set [4] the test system is Streptococcus oralis. As to the kind of experiment: MIC (microbroth dilution). It is filed as cell-based. To be noted: ATCC9811, ATCC 9811. The method in brief: as §2
For data set [5], the system named is Streptococcus sanguinis. As to the kind of experiment: MIC (microbroth dilution). Type of data set: cell-based. The settings on record: ATCC10556, ATCC 10556. The method in brief:
as §2

The subject of data set [6] is Enterococcus gallinarum. Description: MIC (microbroth dilution). It is filed as cell-based. The settings on record: VanC (ATCC 49608). The method in brief: as §2
The test system of data set [7] is Staphylococcus saprophyticus. Description: MIC (microbroth dilution). It is filed as cell-based. The settings on record: ATCC15305, ATCC 15305. The method in brief:
as §2

The test system of data set [8] is Streptococcus pneumoniae. As to the kind of experiment: MIC (microbroth dilution). The settings on record: for MIC: Streptococcus pneumoniae. It is filed as cell-based. The gist of the method: as §2
For data set [9], the system named is Streptococcus salivarius. Description: MIC (microbroth dilution). Type of data set: cell-based. The settings on record: ATCC13419, ATCC 13419. The gist of the method:
as §2

In data set [10] the test system is Streptococcus intermedius. Description: MIC (microbroth dilution). It is filed as cell-based. To be noted: ATCC29663, ATCC 29663. The method in brief: as §2
In data set [11] the test system is S. epidermidis. Description: MIC (microbroth dilution). The settings on record: Staphylococcus epidermidis, read-out: MIC. It is filed as cell-based, Staphylococcus epidermidis. As for the experimental part:
as §1, with “All bacterial assays were carried out in tryptic soy broth (TSB), except for Streptococcus spp. which were grown in cation-adjusted Mueller Hinton broth containing 2.5% lysed horse blood.” left out, “The compounds were prepared as a DMSO stock and equivalent concentrations of DMSO had no effect on bacterial growth.” left out, “Thirty μg/mL of PMBN had no effect on bacterial growth.” left out

The conditions of data set [12]: reported values; cited from earlier work.
Data set [13] relates to A. baumannii. As to the kind of experiment: A. baumannii efflux chequerboard assay. The settings on record: for MIC: Acinetobacter baumannii. It is filed as cell-based, Acinetobacter baumannii. As for the experimental part: Checkerboard assays were performed by preparing two separate 2-fold dilution series of compounds in two 96 well plates, one horizontally, one vertically. […] Plates were incubated at 37 C for 20 h and the absorbance (OD600) was read on a CLARIOstar spectrophotometer (BMG Labtech). The fractional inhibitory concentration was calculated as follows: ΣFIC = [(MIC of A in combination)/(MIC of A alone)] + [(MIC of B in combination)/(MIC of B alone)].

Data set [14] has as its system A. baumannii strain AYE. Description: Time-kill assay. It is filed as cell-based. The settings on record: 4 × MIC. As for the experimental part:
Time-kill assays were performed as defined previously.

In brackets after ≈: the same amount, converted by molar mass. Like-named read-outs stand apart in the source and are kept apart here.

The MIC is the lowest concentration that inhibits growth of the organism. `Cc1cc(C)nc(N[C@@H]2CCN(c3c(F)cc4c(=O)c(C(=O)O)cn5c4c3OC[C@@H]5C)C2)n1` [Compound 50, (S)-10-((R)-3-((4,6-Dimethylpyrimidin-2-yl)amino)pyrrolidin-1-yl)-9-fluoro-3-methyl-7-oxo-2,3-dihydro-7H-[1,4]oxazino[2,3,4-ij]quinoline-6-carboxylic acid]: the “MIC range” value in data set [1] was in the range of 0.03 to 0.25 µg/mL; in data set [2] (including VanA, VanB, and VanD phenotypes), 0.125 to 1 µg/mL; in data set [8] (including MDR and PRSP strains) it was 0.06 to 0.125 µg/mL. Further, the MIC in data set [2] (ATCC19434, ATCC 19434, read-out: MIC) was 1 µg/mL (≈ 2.21 µM); in data set [2] (ATCC700221, VanA (ATCC 700221), read-out: MIC), 0.5 µg/mL (≈ 1.1 µM); in [2] (BAA2320, VanA (BAA-2320), read-out: MIC), 1 µg/mL (≈ 2.21 µM); in data set [2] (CCUG56431, VanB (CCUG 56431), read-out: MIC) it was 0.25 µg/mL (≈ 0.551 µM); in data set [2] (CCUG56858) it was 0.125 µg/mL (≈ 0.276 µM); in data set [2] (CCUG58354, VanD (CCUG 58354), read-out: MIC), 0.25 µg/mL (≈ 0.551 µM). Also, the MIC worked out at 1 µg/mL (≈ 2.21 µM) in data set [2] (CCUG59167, VanA (TUH44-29; CCUG 59167), read-out: MIC); 0.03 µg/mL (≈ 0.0662 µM) in data set [3]; 0.25 µg/mL (≈ 0.551 µM) in [4]; 0.25 µg/mL (≈ 0.551 µM) in data set [5]; 0.25 µg/mL (≈ 0.551 µM) in [6] (Enterococcus gallinarum, ATCC 49608 / GALLINARUM, read-out: MIC); 0.25 µg/mL (≈ 0.551 µM) in data set [6]. The MIC in data set [7] stood at 0.06 µg/mL (≈ 0.132 µM); in data set [8] (ATCC6301), 0.125 µg/mL (≈ 0.276 µM); in data set [8] (ATCC49619) it was 0.125 µg/mL (≈ 0.276 µM); in data set [8] (ATCC51916), 0.125 µg/mL (≈ 0.276 µM); in [8] (ATCC700669, ST 23F (ATCC 700669), read-out: MIC) it was 0.06 µg/mL (≈ 0.132 µM); in data set [8] (ATCC700673, MDR (ATCC 700673), read-out: MIC), 0.06 µg/mL (≈ 0.132 µM). Besides, the MIC in data set [8] (ATCC700675, ATCC 700675, read-out: MIC) stood at 0.06 µg/mL (≈ 0.132 µM); in [8] (ATCC700676), 0.125 µg/mL (≈ 0.276 µM); in [8] (ATCC 700677 / PRSP, PRSP (ATCC 700677), read-out: MIC) it was 0.06 µg/mL (≈ 0.132 µM); in data set [8] (PRSP (TM532), read-out: MIC), 0.06 µg/mL (≈ 0.132 µM); in [9], 0.25 µg/mL (≈ 0.551 µM); in data set [10], 0.03 µg/mL (≈ 0.0662 µM). For the same compound, the MIC is 0.03 µg/mL (≈ 0.0662 µM) in [11] (ATCC12228, ATCC 12228); 0.03 µg/mL (≈ 0.0662 µM) in data set [11] (ATCC 51625 / MRSE, MRSE (ATCC 51625)); 0.03 µg/mL (≈ 0.0662 µM) in [11] (NRS101); 0.5 µg/mL (≈ 1.1 µM) in data set [11] (GIS (NRS7)); 1 µg/mL (≈ 2.21 µM) in [11] (GIS (NRS8)); 0.06 µg/mL (≈ 0.132 µM) in data set [11] (GIS (NRS60)).
Turning to `C[C@H]1COc2c(N3CCN(C)CC3)c(F)cc3c(=O)c(C(=O)O)cn1c23` [Levofloxacin, (S)-9-Fluoro-3-methyl-10-(4-methylpiperazin-1-yl)-7-oxo-2,3-dihydro-7H-[1,4]oxazino[2,3,4-ij]quinoline-6-carboxylic acid, reference compound], the plasma protein binding in data set [12] is 38%. Besides, the “MIC +50 (0.25x MIC)” value in data set [13] (A. baumannii ATCC 17978) lay in the range of 0.007 to 0.06 µg/mL; in data set [13] (A. baumannii AYE) it was 0.014 to 1.88 µg/mL. Moreover, the results for the “MIC +50 (0.5x MIC)” value in data set [13] (A. baumannii ATCC 17978) and in [13] (A. baumannii AYE) were 0.009 to 0.06 µg/mL and 0.012 to 0.9 µg/mL, respectively. Further, the MIC in [13] (ATCC17978, read-out: MIC alone) came out at 0.125 µg/mL; in data set [13] (read-out: MIC alone), 4 µg/mL.
`C[C@H]1COc2c(N3CC[C@@H](Nc4ncccn4)C3)c(F)cc3c(=O)c(C(=O)O)cn1c23` [Compound 46, (S)-9-Fluoro-3-methyl-7-oxo-10-((R)-3-(pyrimidin-2-ylamino)pyrrolidin-1-yl)-2,3-dihydro-7H-[1,4]oxazino[2,3,4-ij]quinoline-6-carboxylic acid]: in data set [14], the time-kill profile result is reported as “rapid bactericidal activity”.
